System: CT26 cells
Experiment: Anti-tumor vaccination assay, CT26 cells in BALB/c mice
Type: in vivo, mouse
Settings: for frequency of mice showing a protective response: 8 Gy + 10 μM compound 24 h
Description: FIG. 5. Identification of cannibalism modulators as immunogenic cell death inducers. MCA205 (A) or CT26 (E, I, M, Q) cells were treated with the indicated drugs. After 24 h of coculture with the indicated treatment, cell death was monitored by staining DiOC6(3) and PI, and the percentage of dying (DiOC6(3)^low PI^−, open bars) and dead (DiOC6(3)^low PI^+, closed bars) cells was determined by cytofluorometry. (B-D) MCA205 cells or (F-H, J-L, N-P, R-T) CT26 cells cocultured after x irradiation with the indicated compounds were inoculated subcutaneously into the right flank of […] or BALB/c mice, respectively. Seven days later, the mice were rechallenged with live cells injected into the opposite flank, and tumor growth was monitored (five mice per group).
FIG. 6. Tumor vaccination experiments. CT26 cells were treated for 24 hours with 10 μM VP331 (A, F, K), 10 μM Minaprine (B, G, L), 10 μM Lopa87 (C, H, M), 10 μM SG6163F (D, I, N), 10 μM Azaguanine-8 (8-aza) (E, J, O) alone or combined with 8 Gy ionizing radiation and inoculated (s.c.) into immunocompetent BALB/c mice, which were rechallenged at the opposite flank 7 days later with the same cancer cells. The percentage of tumor-free mice was evaluated three times a week for the following 38 days. Percentage of total tumor free mice (A-E), tumor free-mice at the first injection site (F to J, P) or at the second injection site (K to O, Q) are shown. (*P<0.05, **P<0.01, ***P<0.001, two-way ANOVA).
The combination of IRCCE with IR induces efficient antitumor immunity. Considering that immunogenic cell death (ICD) inducers were identified (such as Digoxin, Digitoxin, Lanatoside C or Doxorubicin hydrochloride)^3, 4, 48-51) as IRCCE, the ability of these compounds to induce an antitumor immunity after radiotherapy was evaluated. First, a preclinical approaches was developed to study the immunological effects of IRCCE on two mouse models of carcinoma (colon CT26 carcinoma and fibrosarcoma MCA205). Initially, the ability of the combination of IRCCE+IR to trigger a specific anti-tumor immune response was appreciated using immunocompetent mice through anti-tumor vaccination assays. According to previously published studies^52, the injection of cancer cells succumbing to an immunogenic cell death (ICD) into immunocompetent mice must elicit a protective immune response that is specific for tumor antigens. Thus, 3×10^5 MCA205 cells were first treated with 10 μM of SG6163F for 24 hours. Then, treated cells were inoculated subcutaneously in 200 μl PBS into the lower flank of 8-week-old female C57BL/6 mice. One week later, 3×10^4 untreated control cells were inoculated into the contralateral flank of mice. Tumors were evaluated weekly using a common caliper. Animals bearing tumors that exceeded 20-25% body mass were euthanatized. […] Then, 3×10^6 CT26 cells were irradiated with 8 Gy in presence of 10 μM of SG6163F (FIGS. 5E and 5F), VP331 (FIGS. 5I and 5J), Minaprine dihydrochloride (FIGS. 5M and 5N) or LOPA87 (FIGS. 5Q and 5R) for 24 hours. Then, cells were inoculated as previously described subcutaneously in […] into the lower flank of 8-week-old female BALB/c mice. One week later, 5×10^5 untreated control cells were inoculated into the contralateral flank of mice and tumors were evaluated weekly using a common caliper. As previously mentioned, animals bearing tumors that exceeded 20-25% body mass were euthanatized. The percentage of dying cells in each condition was evaluated by determining with DiOC(6)3/IP staining (FIGS. 5E, 5I, 5M and 5Q). Finally, the ability of these compounds to repress the growth of cancer cells that have been injected 7 days after injection of irradiated and treated cancer cells was appreciated.
A second anti-tumor vaccination assay was done on CT26 mouse models of carcinoma as previously described. […]

SMILES: Cc1cc(-c2ccccc2)nnc1NCCN1CCOCC1.Cl.Cl [Minaprine dihydrochloride]
- frequency of mice showing a protective response (first assay: CT26 cells, rechallenge one week later): significant increase in the frequency of mice showing a protective response
- protective response after injection of cancer cells (second assay: CT26 cells treated with 10 μM compound alone (no IR)): induce an increase of protective response
- frequency of mice showing a protective response (second assay: CT26 cells, rechallenge 7 days later): Significant increases in the frequency of mice showing a protective response

Reference: US11517575B2, “Use of minaprine to reduce tumor growth” (Institut Gustave-Roussy, priority 2019, dated 2022)
